The results in this text go back to patent US7927811B2, “Polypeptides having brain-localizing activity and uses thereof” (Proteus Sciences Co., Ltd., priority 2003, dated 2011).

The experiment has as its system mouse brain tissues (cerebral parenchyma). Kind of experiment: Brain-localizing peptide conjugates bound to gold colloids administered to mice; transmission electron microscopy of brain tissue sections. It is filed as in vivo. Particulars: biotin-conjugated peptide + avidin-gold particles administered to mice; electron micrographs, hippocampal pyramidal cells and cerebellar Purkinje cell region. An excerpt:
The present inventors produced brain-localizing peptide conjugates. The conjugates are molecules that can have a cyclic structure due to the formation of a disulfide bond between cysteine residues in a peptide molecule of the present invention, and may also have biotin attached to them. The conjugates have affinity to avidin compounds.
The conjugates were bound to gold colloids and administered to mice, and the mice were subjected to experiments that evaluate the brain-localizing activity of the peptides of the present invention (observation of brain tissue sections under a transmission electron microscope).
[Section Preparation] • (i) trimming • (ii) preparation of thick sections (2 to 3 μm thick) using a glass knife • (iii) preparation of ultra-thin sections (50 to 100 nm thick) using a diamond knife • (iv) electron staining: 2% uranium acetate and then 1% lead citrate (3 minutes each) • (v) transmission electron microscope observation (acceleration voltage of 80 kV)
In the present experiment, T2J002 (SEQ ID NO: 2) and T2J004 (SEQ ID NO: 4) were used as peptides of the present invention. The arrows show positions of the gold particle-bound peptide molecules of the present invention. […] More specifically, the peptides of the present invention were confirmed to have brain-localizing activity.

With CSLNTRSQC [T2J002], the “transport of gold colloids into the cerebral parenchyma (brain-localizing activity)” value was “successfully transport the gold colloids into the cerebral parenchyma”.

Turning to CVVRHLQQC [T2J004], the “transport of gold colloids into the cerebral parenchyma (brain-localizing activity)” value is given as “successfully transport the gold colloids into the cerebral parenchyma”.
